Reference: article PMC12785453, “Oral Fluid Concentrations and Pharmacological Effects of Clephedrone and Methylone in Humans” (International Journal of Molecular Sciences, 2025)

Assays:
[1] = test system: healthy male participants; test: Physiological effects (SBP, DBP, HR, T), controlled methylone pilot clinical trial; type: in vivo, humans
Method: Methylone pharmacology was evaluated in a study designed as a randomized, double-blind, placebo-controlled, crossover clinical trial. Four pilot studies were conducted administering methylone at oral doses of 50 (n = 3), 100 (n = 6), 150 (n = 5), and 200 mg (n = 7). Participants attended 3 experimental sessions separated by a one-week wash-out period and received two doses of methylone (one dose per experimental session) compared to placebo, except in the last pilot study in which participants received one dose of methylone, compared to MDMA and placebo. However, in this manuscript, only the results corresponding to the highest methylone doses (n = 12; 150 and 200 mg; mean dose = 179.2 mg) are presented, to enable comparison with clephedrone self-administration. Participants were recruited by word of mouth in the volunteer database of the clinical pharmacology unit.
Participants of the naturalistic clephedrone study were summoned at 15:00 h at the private club where sessions were carried out. The club remained closed to the public until the end of the session, approximately at 21:00 h. As a naturalistic study, participants were left free to talk, read, play games, or listen to music in the time between study evaluations. To avoid possible influences between participants, they were asked to refrain from talking about the effects of the self-administered substance. The experimental sessions of the controlled pilot trial were carried out at the Clinical Research Unit (UPIC) of the Germans Trias i Pujol hospital, where participants were summoned at 7:45 a.m. after fasting overnight and remained there for approximately 11 h.
Methylone hydrochloride of high purity in powder form was acquired from LGC Standards (Teddington, UK) for the controlled study. The Pharmacy Department of the Hospital Universitari Germans Trias i Pujol was responsible for manufacturing, storing, and dispensing identical and opaque soft gelatin capsules containing 50 mg of methylone or a placebo (maltodextrin). Treatment consisted of 5 capsules that combined methylone and/or a placebo to reach the target dose. Details can be found in the previous article.
In the controlled methylone study, vital signs monitors (Philips Sure Signs VM4 monitors, Philips, Amsterdam, The Netherlands) were used to measure SBP, DBP, HR, and oral temperature at baseline (−30 and −15 min) and 0.25, 0.50, 0.75, 1.5, 2, 3, 4, 6, 8, 10, and 24 h after administration. For these evaluations, participants rested in hospital beds in a position of back elevation. Furthermore, electrocardiograms were constantly monitored throughout the sessions for safety reasons.
(§1) For statistical analysis, values of physiological (SBP, DBP, HR, and T) and subjective effects (VAS, ARCI, and VESSPA-SSE) were baseline–adjusted. Maximum effects (Emax) and the time needed to reach maximum effects (Tmax) were determined, and the area under the curve up to 5 h (AUC0–5h) for clephedrone and up to 6 h (AUC0–6h) for methylone was calculated using the trapezoidal rule. Emax and AUC values are presented as mean ± standard deviation, whereas Tmax is presented in median (range).
(§2) To find possible significant changes through the time course compared to baseline, a Dunnett multiple comparison test was carried out to compare each time point with baseline in both drug conditions. For clephedrone the comparisons were 0–0.5 h, 0–1 h, 0–1.5 h, 0–2 h, 0–3 h, 0–4 h and 0–5 h, and for methylone this analysis included 0–0.25 h, 0–0.5 h, 0–0.75 h, 0–1 h, 0–1.5 h, 0–2 h, 0–3 h, 0–4 h and 0–6 h. Given their different study designs, no comparative analysis between the time courses of both synthetic cathinones was conducted.

[2] = cited from earlier work
healthy volunteers = test: Subjective effects, VESSPA-SSE, clephedrone study; type: in vivo, humans; settings: 100 or 150 mg oral, n=8
Excerpt: The study evaluating the acute effects of clephedrone was designed as a non-controlled, prospective, observational, and naturalistic study. The procedures and evaluations included in this study have been described in previous studies evaluating other synthetic cathinones (mephedrone, methylone, alpha-PVP, NEP, HEXEN), phenethylamines (2C-B and 2C-E), or synthetic cannabinoids (JWH-122, JWH-210, UR-144).
This study consisted of one experimental session in which participants (N = 8; 6 women, 2 men) selected their oral dose of clephedrone based on their drug use experience and preferences. According to their dose selection, 3 women and 1 man ingested 100 mg of clephedrone, while the remaining 3 women and 1 man opted for a higher dose of 150 mg. […] Participants were recruited by word of mouth by the harm reduction organization Energy Control in Barcelona (Associació Benestar i Desenvolupament, ABD).
Subjective effects were evaluated with visual analog scales (VAS), the short form of the Addiction Research Center Inventory (ARCI), and the Evaluation of Subjective Effects of Substances with Abuse Potential questionnaire (VESSPA-SSE). In addition, the Sensitivity to Drug Reinforcement Questionnaire (SDRQ) and a pharmacological identification class questionnaire were used in the controlled study administering methylone.
The VESSPA-SSE questionnaire, used to evaluate the subjective effects of stimulant drugs, The questionnaire includes 36-items and consists of six subscales that measure sedation (S), psychosomatic anxiety (ANX), changes in perception (CP), pleasure and sociability (SOC), activity and energy (ACT), and psychotic symptoms (PS).
Participants included in the naturalistic clephedrone study completed VAS at baseline, 0.50, 1, 1.5, 2, 3, 4, and 5 h, and ARCI and VESSPA at baseline, 1, 2, 3, 4, and 5 h after self-administering clephedrone. In the controlled study, VAS was performed at baseline and 0.25, 0.50, 0.75, 1, 1.5, 2, 3, 4, 6, 8, 10, and 24 h, and ARCI and VESSPA at baseline and 1, 2, 3, 4, 6, 8, and 10 h after administering methylone. Participants completed SDRQ and VAS sexual desire and arousal at baseline, 1 and 10 h, and the pharmacological class identification questionnaire at 8 h.
as §1, §2

[3] = 150 or 200 mg oral, n=12, listed as methylone
[4] = AUC0–6h, 150 or 200 mg oral, n=12

CNC(C)C(=O)c1ccc2c(c1)OCO2 (stereo not drawn) [Methylone, 3,4-methylenedioxy-N-methylcathinone]
Onset of cardiovascular effects after administration ([1]; 150 or 200 mg oral): 0.5 h
SBP effects returned to baseline ([1]; 150 or 200 mg oral): 3 h
DBP Emax ([1]; 150 or 200 mg oral, n=12): 3.75 ± 11.52 mmHg
HR Emax ([1]; 150 or 200 mg oral, n=12): 28.75 ± 16.09 bpm
SBP Emax ([1]; 150 or 200 mg oral, n=12): 27.04 ± 10.72 mmHg
DBP Emax [1, 3]: 3.75 mmHg
HR Emax [1, 3]: 28.75 bpm
SBP Emax [1, 3]: 27.04 mmHg
HR AUC0-5/6 h [1, 4]: 97.07 ± 69.24 bpm·h
SBP AUC0-5/6 h [1, 4]: 38.70 ± 26.84 mmHg·h
T AUC0-5/6 h ([1]; AUC0–6h, oral temperature, 150 or 200 mg oral, n=12): 0.88 ± 1.34 °C·h
Tolerability, serious adverse events ([1]; all administered doses (150 or 200 mg oral)): well tolerated
T Emax ([1]; oral temperature, 150 or 200 mg oral, n=12): 0.23 ± 0.34 °C
Tmax in plasma [2]: 2 h

CNC(C)C(=O)c1ccc(Cl)cc1 (stereo not drawn) [Clephedrone, 4-chloromethcathinone]
VESSPA ANX (psychosomatic anxiety) Emax (healthy volunteers): 1.33 ± 0.45 points
VESSPA CP (changes in perception) Emax (healthy volunteers): 0.02 ± 0.06 points
VESSPA CP (changes in perception) Tmax (healthy volunteers): 0.0 (0.0–1.0) h
VESSPA S (sedation) Emax (healthy volunteers): 0.90 ± 0.73 points
VESSPA SOC (pleasure and sociability) Emax (healthy volunteers): 2.85 ± 0.47 points
VESSPA-ACT (activity and energy) Emax (healthy volunteers): 2.52 ± 0.46 points
VESSPA-PS (psychotic symptoms) Emax (healthy volunteers): 0.38 ± 0.50 points
VESSPA ANX (psychosomatic anxiety) AUC0-5/6 h (healthy volunteers; AUC0–5h): 3.01 ± 0.95 points·h
VESSPA CP (changes in perception) AUC0-5/6 h (healthy volunteers; AUC0–5h): 0.06 ± 0.18 points·h
VESSPA S (sedation) AUC0-5/6 h (healthy volunteers; AUC0–5h): 1.69 ± 1.43 points·h
VESSPA SOC (pleasure and sociability) AUC0-5/6 h (healthy volunteers; AUC0–5h): 7.74 ± 3.00 points·h
VESSPA-ACT (activity and energy) AUC0-5/6 h (healthy volunteers; AUC0–5h): 5.93 ± 2.65 points·h
VESSPA-PS (psychotic symptoms) AUC0-5/6 h (healthy volunteers; AUC0–5h): 1.15 ± 2.02 points·h
